Laboratory results from patent US20090203605A1, “Methods For Treating A Condition Characterized By Dysfunction In Protein Homeostasis” (THE SCRIPPS RESEARCH INSTITUTE, priority 2008, published 2009).
Each block holds one molecule with its values, some of them ahead of it.

Key:
[1] = biological target: T1, G269S/1278insTATC HexA (Homo sapiens, UniProt P06865, G269S); test: Hex α-site cell assay in Tay-Sachs fibroblast cell line; assay type: cell-based; conditions: ADNJ 20 to 50 μM, exposed once without media changes, after 192 h
T1 construct: host or cells: Tay-Sachs patient fibroblasts, lysed for the MUGS assay
T1 sequence (P06865 89-529 G269S): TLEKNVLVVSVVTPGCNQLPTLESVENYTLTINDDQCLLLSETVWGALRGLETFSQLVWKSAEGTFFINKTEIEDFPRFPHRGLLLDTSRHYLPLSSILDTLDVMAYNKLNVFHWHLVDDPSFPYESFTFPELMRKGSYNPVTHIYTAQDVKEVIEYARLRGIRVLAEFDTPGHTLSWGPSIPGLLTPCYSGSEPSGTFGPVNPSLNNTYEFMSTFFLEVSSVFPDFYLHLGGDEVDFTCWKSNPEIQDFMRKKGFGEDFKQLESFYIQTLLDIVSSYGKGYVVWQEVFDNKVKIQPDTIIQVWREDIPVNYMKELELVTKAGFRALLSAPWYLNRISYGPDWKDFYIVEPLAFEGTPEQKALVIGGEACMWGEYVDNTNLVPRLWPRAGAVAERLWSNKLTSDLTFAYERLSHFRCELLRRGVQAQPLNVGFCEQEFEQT
T1 sequence (P07686 122-556 partner): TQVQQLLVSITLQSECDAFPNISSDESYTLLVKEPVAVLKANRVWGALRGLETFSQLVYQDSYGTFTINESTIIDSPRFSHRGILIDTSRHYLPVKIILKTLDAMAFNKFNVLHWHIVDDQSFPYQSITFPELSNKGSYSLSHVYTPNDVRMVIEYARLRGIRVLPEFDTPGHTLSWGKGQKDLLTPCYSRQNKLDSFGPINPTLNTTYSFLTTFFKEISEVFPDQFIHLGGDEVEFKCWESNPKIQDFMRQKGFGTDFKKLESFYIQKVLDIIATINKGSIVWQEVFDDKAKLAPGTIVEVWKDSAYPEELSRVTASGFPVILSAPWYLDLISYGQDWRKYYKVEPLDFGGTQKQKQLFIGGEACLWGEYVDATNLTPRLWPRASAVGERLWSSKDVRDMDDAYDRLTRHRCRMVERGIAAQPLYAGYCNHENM
From the text: We therefore evaluated the ability of these proteostasis regulators to restore partial function to HexA, a heterodimeric enzyme composed of α- and β-subunits that degrades GM2 gangliosides in the lysosome. Mutations in the β-hexosaminidase A α-subunit can cause extensive ERAD of HexA, leading to Tay-Sachs disease (TSD). Jeyakumar et al., Neuropathol Appl Neurobiol 28: 343-357, 2002. HexA activity was studied in a compound heterozygous fibroblast cell line (GM13204), harboring one of the most prevalent β-hexosaminidase A α-subunit mutations (G269S) found in Tay-Sachs patients and a second mutated HexA allele (1278insTATC) with a stop codon. […] Tropak et al., J Biol Chem 279: 13478-13487, 2004.
The Hex α-site cell assay has been previously described. Tropak et al., J Biol Chem 279: 13478-13487, 2004. Cells were plated as described for the GC assay. After 1 to 8 days of incubation the medium was removed, cells were washed with PBS, and lysed with 60 μl of 10 mM citrate/phosphate buffer pH 4.2 (CP buffer) containing 0.5% human serum albumin and 0.5% Triton X-100. 30 μl of aliquots were transferred to a 96-well plate and Hex α-site activity was measured by adding 30 μl of 3.2 mM MUGS in CP buffer to each well and incubating the plates at 37° C. for 1 to 7 hour. The reaction was stopped by adding 200 μl of 0.1 M 2-amino-2-methyl-1-propanol pH 10.5 and the fluorescence was measured (excitation 365 nm, emission 450 nm).

[2] = biological target: T2, L444P GC (Homo sapiens, UniProt P04062, L483P); test: GC activity assay in L444P GC Gaucher patient-derived fibroblasts; assay type: cell-based; conditions: for L444P GC activity, maximum fold increase: 30 μM
T2 construct: a L444P GC Gaucher fibroblast cell line (GM08760); host or cells: Gaucher patient-derived skin fibroblasts
T2 sequence (P04062 40-536 L483P): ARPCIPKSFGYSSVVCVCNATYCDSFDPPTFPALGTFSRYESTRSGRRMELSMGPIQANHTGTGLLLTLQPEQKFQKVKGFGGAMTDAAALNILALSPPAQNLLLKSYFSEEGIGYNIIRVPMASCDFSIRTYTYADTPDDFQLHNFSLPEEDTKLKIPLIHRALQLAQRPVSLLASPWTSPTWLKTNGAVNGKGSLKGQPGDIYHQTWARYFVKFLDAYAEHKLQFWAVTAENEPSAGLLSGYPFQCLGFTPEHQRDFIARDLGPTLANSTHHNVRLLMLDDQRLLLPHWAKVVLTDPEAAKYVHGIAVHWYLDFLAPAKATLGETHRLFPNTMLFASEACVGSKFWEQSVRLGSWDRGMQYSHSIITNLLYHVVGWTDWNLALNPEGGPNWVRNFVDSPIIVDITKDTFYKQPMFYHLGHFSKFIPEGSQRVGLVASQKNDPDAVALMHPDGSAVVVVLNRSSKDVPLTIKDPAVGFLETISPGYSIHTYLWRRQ

[3] = tested on: Ca^2+ channel; conditions: cited from earlier work; for IC50: previously reported, Li et al., J Med Chem 35: 3246-3253, 1992, read-out: Ca^2+ channel blocker IC50
[4] = 7 days, intact cell GC activity assay (FIG. 19D)

Structure (SMILES): COc1ccc(S(=O)(=O)N(CCO)c2ccccc2CN(C)C/C=C/c2ccc(Cl)cc2)cc1 [KN93]
effect on L444P GC activity ([2]; IP3R inhibitors (FIG. 33)): None of the compounds enhanced L444P GC activity

Structure (SMILES): C1CCCC2CCCN3CCC(CCCCCCC4CCCN5CCC(CC1)OC45)OC23 (stereo not drawn) [XeC]
effect on L444P GC activity ([2]; IP3R inhibitors (FIG. 33)): None of the compounds enhanced L444P GC activity

Structure (SMILES): CCN(CC)CCCC(C)Nc1ccnc2cc(Cl)ccc12 (stereo not drawn) [chloroquinine]
effect on L444P GC activity ([2]; IP3R inhibitors (FIG. 33)): None of the compounds enhanced L444P GC activity

Structure (SMILES): C=C[C@H]1C[N@@]2CC[C@H]1C[C@H]2[C@H](O)c1ccnc2ccc(OC)cc12 [quinine]
effect on L444P GC activity ([2]; IP3R inhibitors (FIG. 33)): None of the compounds enhanced L444P GC activity

Structure (SMILES): C/C=C(/C)C(=O)O[C@H]1C(C)=C2[C@H]([C@@H]1OC(=O)CCCCCCC)[C@@](C)(OC(C)=O)C[C@H](OC(=O)CCC)[C@@]1(O)[C@H]2OC(=O)[C@@]1(C)O [thapsigargin]
effect on L444P GC folding, trafficking and lysosomal activity ([2]; thapsigargin (FIG. 25)): does not enhance
concentration above which L444P GC activity is decreased significantly ([2]; thapsigargin alone, 7-day incubation): > 1 nM
effect on GC activity in L444P GC cells ([2]; varying concentrations co-applied with 10 μM diltiazem, 7 days): dose-dependent decrease of GC activity

Structure (SMILES): C[CH2][Hg][S]c1ccccc1C(=O)[O-].[Na+] [thimerosal]
effect on L444P GC activity ([2]; IP3R inhibitors (FIG. 33)): None of the compounds enhanced L444P GC activity

Continued, in another order:

Hex α-site activity as % of cellular WT Hex α-site activity [1]: 25%
cellular Hex α-site activity, fold increase [1]: 2.5 fold
Structure (SMILES): CC(=O)N[C@H]1C(O)N[C@H](CO)[C@H](O)[C@@H]1O (stereo partly drawn) [ADNJ, 2-Acetamido-2-deoxynojirimycin]

L444P GC activity, maximum fold increase [2, 4]: 1.3 fold
Structure (SMILES): CN(C)CCN1C(=O)[C@H](O)[C@H](c2ccc(O)cc2)Sc2ccccc21 [Compound 3, (2S,3S)-5-[2-(Dimethylamino)ethyl]-2,3-dihydro-3-hydroxy-2-(4-hydroxyphenyl)-1,5-benzothiazepin-4(5H)-one]
IC50 [3]: 45.5 µM

L444P GC activity, maximum fold increase [2, 4]: 1.2 fold
Structure (SMILES): CNCCN1C(=O)[C@H](O)[C@H](c2ccc(O)cc2)Sc2ccccc21 [Compound 4, (2S,3S)-2,3-Dihydro-3-hydroxy-2-(4-hydroxyphenyl)-5-[2-(methylamino)ethyl]-1,5-benzothiazepin-4(5H)-one]
IC50 [3]: 127 µM

effect on L444P GC activity ([2]; 0.3 to 100 μM, 7 days, intact cell GC activity assay (FIG. 19D)): do not increase L444P GC activity
Structure (SMILES): COc1ccc([C@@H]2Sc3ccccc3NC(=O)[C@@H]2O)cc1 [Compound 6]
Ca^2+ channel antagonist activity ([3]; according to reported SAR studies, lack basic amino nitrogen pharmacophore): not Ca^2+ channel antagonists

GC proteostasis regulator function ([2]; L444P GC cells): not a GC proteostasis regulator
Structure (SMILES): CC(=O)N[C@@H](CSC(=O)[C@]1([C@@H](O)C(C)C)NC(=O)[C@H](C)[C@@H]1O)C(=O)O [lactacystin]

effect on L444P GC activity, intact cell GC enzyme assay ([2]; thermosensitive TRP channel modulators, 5-day incubation): notably increased
Structure (SMILES): N.N.N.N.N.N.N.N.N.N.N.N.N.N.[Cl-].[Cl-].[Cl-].[Cl-].[Cl-].[Cl-].[O-2].[O-2].[Ru+3].[Ru+3].[Ru+4] [ruthenium red]
